This passage reports activity coefficient results from the NIST ThermoML archive (doi:10.1016/j.jct.2013.09.007).

The series can be described thus: activity coefficient (dimensionless); of the first substance listed, at infinite dilution; xn = mol fraction of the nth substance listed. The following applies: 101 kPa, Liquid, Chromatography, x1 = 0.

Numbers after ± are expanded uncertainties.

On to `Cc1ccccc1C` [1,2-dimethylbenzene] + CCCC[n+]1cccc(C)c1.N#C[N-]C#N, for which the activity coefficient worked out at 2.47 ± 0.17 (328.15 K); 2.51 ± 0.17 (338.15 K); 2.58 ± 0.18 (348.15 K); 2.64 ± 0.18 (358.15 K); 2.71 ± 0.18 (368.15 K).
Take `Cc1cccc(C)c1` [1,3-dimethylbenzene] + CCCC[n+]1cccc(C)c1.N#C[N-]C#N: the activity coefficient (328.15 K) was 3.01 ± 0.2; the activity coefficient (338.15 K) was determined as 3.06 ± 0.21; the activity coefficient (348.15 K) amounted to 3.14 ± 0.21; the activity coefficient (358.15 K) came to 3.2 ± 0.22; the activity coefficient (368.15 K) came out at 3.28 ± 0.22.
`Cc1ccc(C)cc1` [1,4-dimethylbenzene] + CCCC[n+]1cccc(C)c1.N#C[N-]C#N: the activity coefficient is, setting by setting: (328.15 K) 2.86 ± 0.19; (338.15 K) 2.92 ± 0.2; (348.15 K) 3.02 ± 0.21; (358.15 K) 3.08 ± 0.21; (368.15 K) 3.17 ± 0.22.
On to `C1COCCO1` [1,4-dioxane] + CCCC[n+]1cccc(C)c1.N#C[N-]C#N, for which the activity coefficient runs as follows: (338.15 K) 1.01 ± 0.06; (348.15 K) 1.05 ± 0.07; (358.15 K) 1.08 ± 0.07; (368.15 K) 1.11 ± 0.07.
On to `C=CCCCCCCCC` [1-decene] + CCCC[n+]1cccc(C)c1.N#C[N-]C#N, for which the activity coefficient is, setting by setting: (308.15 K) 109 ± 7; (318.15 K) 101 ± 7; (328.15 K) 93.8 ± 6.4; (338.15 K) 88.4 ± 6.1; (348.15 K) 83.2 ± 5.7; (358.15 K) 78.1 ± 5.4. Besides, under “368.15 K”, the activity coefficient was 73.9 ± 5.1.
On to `C=CCCCCC` [1-heptene] + CCCC[n+]1cccc(C)c1.N#C[N-]C#N, for which the activity coefficient by setting is: (308.15 K) 33.1 ± 2.3; (318.15 K) 31.2 ± 2.1; (328.15 K) 29.7 ± 2; (338.15 K) 28.3 ± 1.9; (348.15 K) 27 ± 1.8; (358.15 K) 25.9 ± 1.8. For the setting “368.15 K”, the activity coefficient was found to be 24.8 ± 1.7.
For `C#CCCCCC` [1-heptyne] + CCCC[n+]1cccc(C)c1.N#C[N-]C#N, the activity coefficient (308.15 K) amounted to 6.16 ± 0.42; the activity coefficient (318.15 K) stood at 6.27 ± 0.43; the activity coefficient (328.15 K) was determined as 6.38 ± 0.43; the activity coefficient (338.15 K) was determined as 6.48 ± 0.44; the activity coefficient (348.15 K) came out at 6.58 ± 0.45; the activity coefficient (358.15 K) amounted to 6.67 ± 0.45. The activity coefficient (368.15 K) stood at 6.78 ± 0.46.
Consider `C#CCCCC` [1-hexyne] + CCCC[n+]1cccc(C)c1.N#C[N-]C#N, for which the activity coefficient worked out at 4.13 ± 0.28 (308.15 K); 4.25 ± 0.29 (318.15 K); 4.35 ± 0.3 (328.15 K); 4.45 ± 0.3 (338.15 K); 4.55 ± 0.31 (348.15 K); 4.62 ± 0.31 (358.15 K). In addition, the activity coefficient (368.15 K) was 4.72 ± 0.32.
As to `CCC[N+](=O)[O-]` [1-nitropropane] + CCCC[n+]1cccc(C)c1.N#C[N-]C#N, the activity coefficient (338.15 K) amounted to 1.13 ± 0.07, the activity coefficient (348.15 K) is 1.14 ± 0.07, the activity coefficient (358.15 K) was 1.15 ± 0.07 and the activity coefficient (368.15 K) is 1.15 ± 0.07.
With `C#CCCCCCC` [1-octyne] + CCCC[n+]1cccc(C)c1.N#C[N-]C#N, the activity coefficient was 9.22 ± 0.63 (308.15 K); 9.32 ± 0.64 (318.15 K); 9.42 ± 0.64 (328.15 K); 9.52 ± 0.65 (338.15 K); 9.6 ± 0.65 (348.15 K); 9.68 ± 0.66 (358.15 K). Moreover, the activity coefficient (368.15 K) came out at 9.75 ± 0.67.
In the case of `C=CCCC` [1-pentene] + CCCC[n+]1cccc(C)c1.N#C[N-]C#N, the activity coefficient reads like this: (308.15 K) 15.3 ± 1; (318.15 K) 14.7 ± 1; (328.15 K) 14.1 ± 1; (338.15 K) 13.7 ± 0.9; (348.15 K) 13.1 ± 0.9; (358.15 K) 12.6 ± 0.9. In addition, where the note is “368.15 K”, the activity coefficient was 12.2 ± 0.8.
As to `C#CCCC` [1-pentyne] + CCCC[n+]1cccc(C)c1.N#C[N-]C#N, the activity coefficient was 2.9 ± 0.2 (308.15 K); 2.97 ± 0.2 (318.15 K); 3.05 ± 0.21 (328.15 K); 3.14 ± 0.21 (338.15 K); 3.21 ± 0.22 (348.15 K); 3.28 ± 0.22 (358.15 K). For the same compound, under “368.15 K”, the activity coefficient was found to be 3.35 ± 0.23.
As to `CC(C)CC(C)(C)C` [2,2,4-trimethylpentane] + CCCC[n+]1cccc(C)c1.N#C[N-]C#N, the activity coefficient (308.15 K) was determined as 104 ± 7; the activity coefficient (318.15 K) was determined as 93.3 ± 6.4; the activity coefficient (328.15 K) turned out to be 85.8 ± 5.9; the activity coefficient (338.15 K) turned out to be 78.3 ± 5.4; the activity coefficient (348.15 K) came out at 72.6 ± 5; the activity coefficient (358.15 K) is 67 ± 4.6. In addition, under “368.15 K”, the activity coefficient came to 61.7 ± 4.2.
On to `CCC(C)(C)C` [2,2-dimethylbutane] + CCCC[n+]1cccc(C)c1.N#C[N-]C#N, for which the activity coefficient reads like this: (308.15 K) 57.3 ± 3.9; (318.15 K) 52 ± 3.6; (328.15 K) 47.4 ± 3.2; (338.15 K) 42.9 ± 2.9; (348.15 K) 39.4 ± 2.7; (358.15 K) 36.4 ± 2.5. Besides, where the note is “368.15 K”, the activity coefficient is 33.6 ± 2.3.
`CCOC(C)(C)C` [2-ethoxy-2-methylpropane] + CCCC[n+]1cccc(C)c1.N#C[N-]C#N: the activity coefficient was 18 ± 1.2 (308.15 K); 17.5 ± 1.2 (318.15 K); 17 ± 1.2 (328.15 K); 16.7 ± 1.1 (338.15 K); 16.3 ± 1.1 (348.15 K); 15.9 ± 1.1 (358.15 K). The activity coefficient (368.15 K) was found to be 15.6 ± 1.1.
For `CCCCC(C)=O` [2-hexanone] + CCCC[n+]1cccc(C)c1.N#C[N-]C#N, the activity coefficient by setting is: (328.15 K) 2.44 ± 0.17; (338.15 K) 2.48 ± 0.17; (348.15 K) 2.54 ± 0.17; (358.15 K) 2.59 ± 0.18; (368.15 K) 2.63 ± 0.18.
In the case of `CCC(C)(C)OC` [2-methoxy-2-methylbutane] + CCCC[n+]1cccc(C)c1.N#C[N-]C#N, the activity coefficient stood at 9.8 ± 0.67 (308.15 K); 9.71 ± 0.66 (318.15 K); 9.59 ± 0.65 (328.15 K); 9.51 ± 0.65 (338.15 K); 9.44 ± 0.64 (348.15 K); 9.35 ± 0.64 (358.15 K). Besides, the activity coefficient (368.15 K) was found to be 9.27 ± 0.63.
In the case of `COC(C)(C)C` [2-methoxy-2-methylpropane] + CCCC[n+]1cccc(C)c1.N#C[N-]C#N, the activity coefficient stood at 6.76 ± 0.46 (308.15 K); 6.77 ± 0.46 (318.15 K); 6.78 ± 0.46 (328.15 K); 6.78 ± 0.46 (338.15 K); 6.79 ± 0.46 (348.15 K); 6.8 ± 0.46 (358.15 K). For the same compound, the activity coefficient (368.15 K) worked out at 6.8 ± 0.46.
For `CCCC(=O)CC` [3-hexanone] + CCCC[n+]1cccc(C)c1.N#C[N-]C#N, the activity coefficient by setting is: (338.15 K) 2.77 ± 0.19; (348.15 K) 2.82 ± 0.19; (358.15 K) 2.87 ± 0.2; (368.15 K) 2.89 ± 0.2.
Take `CCC(C)CC` [3-methylpentane] + CCCC[n+]1cccc(C)c1.N#C[N-]C#N: the activity coefficient is, setting by setting: (308.15 K) 50.9 ± 3.5; (318.15 K) 47 ± 3.2; (328.15 K) 43.1 ± 3; (338.15 K) 39.8 ± 2.7; (348.15 K) 36.9 ± 2.5; (358.15 K) 34.7 ± 2.4. In addition, the activity coefficient (368.15 K) came out at 32.4 ± 2.2.
As to `C=C(C)c1ccccc1` [(1-methylethenyl)benzene] + CCCC[n+]1cccc(C)c1.N#C[N-]C#N, the activity coefficient runs as follows: (328.15 K) 2.1 ± 0.14; (338.15 K) 2.21 ± 0.15; (348.15 K) 2.33 ± 0.16; (358.15 K) 2.44 ± 0.17; (368.15 K) 2.55 ± 0.17.
Regarding `CC(C)=O` [acetone] + CCCC[n+]1cccc(C)c1.N#C[N-]C#N, the activity coefficient reads like this: (328.15 K) 0.946 ± 0.06; (338.15 K) 0.968 ± 0.061; (348.15 K) 0.999 ± 0.062; (358.15 K) 1.03 ± 0.06; (368.15 K) 1.04 ± 0.07.
Consider `CC#N` [acetonitrile] + CCCC[n+]1cccc(C)c1.N#C[N-]C#N, for which the activity coefficient came to 0.736 ± 0.049 (338.15 K), 0.748 ± 0.049 (348.15 K), 0.76 ± 0.05 (358.15 K) and 0.764 ± 0.05 (368.15 K).
As to `c1ccccc1` [benzene] + CCCC[n+]1cccc(C)c1.N#C[N-]C#N, the activity coefficient amounted to 1.37 ± 0.09 (328.15 K); 1.4 ± 0.09 (338.15 K); 1.43 ± 0.09 (348.15 K); 1.47 ± 0.1 (358.15 K); 1.5 ± 0.1 (368.15 K).
Take `CCCCO` [butan-1-ol] + CCCC[n+]1cccc(C)c1.N#C[N-]C#N: the activity coefficient is, setting by setting: (338.15 K) 0.88 ± 0.056; (348.15 K) 0.855 ± 0.055; (358.15 K) 0.84 ± 0.054; (368.15 K) 0.814 ± 0.053.
In the case of `C1CCCCCC1` [cycloheptane] + CCCC[n+]1cccc(C)c1.N#C[N-]C#N, the activity coefficient runs as follows: (308.15 K) 27.3 ± 1.9; (318.15 K) 25.2 ± 1.7; (328.15 K) 23.6 ± 1.6; (338.15 K) 22.1 ± 1.5; (348.15 K) 20.7 ± 1.4; (358.15 K) 19.5 ± 1.3. Moreover, the activity coefficient (368.15 K) came out at 18.5 ± 1.3.
As to `C1CCCCC1` [cyclohexane] + CCCC[n+]1cccc(C)c1.N#C[N-]C#N, the activity coefficient is 23 ± 1.6 (308.15 K); 21.2 ± 1.4 (318.15 K); 19.8 ± 1.4 (328.15 K); 18.5 ± 1.3 (338.15 K); 17.4 ± 1.2 (348.15 K); 16.5 ± 1.1 (358.15 K). For the same compound, under “368.15 K”, the activity coefficient came to 15.6 ± 1.1.
For `O=C1CCCCC1` [cyclohexanone] + CCCC[n+]1cccc(C)c1.N#C[N-]C#N, the activity coefficient reads like this: (338.15 K) 0.928 ± 0.059; (348.15 K) 0.96 ± 0.06; (358.15 K) 0.988 ± 0.062; (368.15 K) 1.01 ± 0.06.
